Tests used:
CHUK/IKKA = molecular target: T1, CHUK/IKKA (Homo sapiens, UniProt O15111); assay: KiNativ ATP-probe chemoproteomics in A375 cells treated with WX8; format: cell-based; conditions: A-375
T1 sequence (O15111 1-745): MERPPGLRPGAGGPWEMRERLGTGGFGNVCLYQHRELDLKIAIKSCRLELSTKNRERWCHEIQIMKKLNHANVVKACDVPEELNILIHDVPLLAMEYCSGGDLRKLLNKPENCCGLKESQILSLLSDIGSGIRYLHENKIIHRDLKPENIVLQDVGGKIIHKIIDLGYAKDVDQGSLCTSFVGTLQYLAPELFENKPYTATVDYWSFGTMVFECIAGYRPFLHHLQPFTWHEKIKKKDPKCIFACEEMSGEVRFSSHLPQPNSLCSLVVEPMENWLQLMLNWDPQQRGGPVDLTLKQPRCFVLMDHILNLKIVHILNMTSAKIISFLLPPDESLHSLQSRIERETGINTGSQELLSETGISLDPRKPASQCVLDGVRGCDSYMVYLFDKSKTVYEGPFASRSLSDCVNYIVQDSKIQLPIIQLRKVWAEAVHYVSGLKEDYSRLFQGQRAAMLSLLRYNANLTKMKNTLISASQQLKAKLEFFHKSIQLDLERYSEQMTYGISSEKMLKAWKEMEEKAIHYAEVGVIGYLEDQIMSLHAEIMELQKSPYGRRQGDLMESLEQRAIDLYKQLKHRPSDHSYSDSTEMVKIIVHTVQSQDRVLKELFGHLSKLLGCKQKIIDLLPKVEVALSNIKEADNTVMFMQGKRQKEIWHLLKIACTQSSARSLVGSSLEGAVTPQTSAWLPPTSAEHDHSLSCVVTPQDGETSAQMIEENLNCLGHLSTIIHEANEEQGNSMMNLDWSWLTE

PIP4K2C = molecular target: T2, PIP4K2C (Homo sapiens, UniProt Q8TBX8); assay: KiNativ ATP-probe chemoproteomics in A375 cells treated with WX8; in vitro kinase binding assay (Fig. 2F); format: biochemical
T2 sequence (Q8TBX8 2-421): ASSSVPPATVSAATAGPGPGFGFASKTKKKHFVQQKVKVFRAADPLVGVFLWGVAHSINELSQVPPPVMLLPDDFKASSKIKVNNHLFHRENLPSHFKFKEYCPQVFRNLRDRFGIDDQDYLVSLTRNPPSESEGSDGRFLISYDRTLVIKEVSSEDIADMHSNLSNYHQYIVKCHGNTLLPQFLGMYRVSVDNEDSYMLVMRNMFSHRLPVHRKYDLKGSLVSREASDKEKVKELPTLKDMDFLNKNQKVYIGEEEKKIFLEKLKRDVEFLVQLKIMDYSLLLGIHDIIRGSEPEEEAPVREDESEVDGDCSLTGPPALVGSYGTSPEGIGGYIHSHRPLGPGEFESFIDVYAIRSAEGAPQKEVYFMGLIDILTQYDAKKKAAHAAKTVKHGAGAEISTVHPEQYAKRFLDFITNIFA

PIKFYVE = PIKFYVE (Homo sapiens, UniProt Q9Y2I7); assay: as above; format: cell-based; conditions: A-375
Sequence of PIKFYVE (Q9Y2I7 2-2098): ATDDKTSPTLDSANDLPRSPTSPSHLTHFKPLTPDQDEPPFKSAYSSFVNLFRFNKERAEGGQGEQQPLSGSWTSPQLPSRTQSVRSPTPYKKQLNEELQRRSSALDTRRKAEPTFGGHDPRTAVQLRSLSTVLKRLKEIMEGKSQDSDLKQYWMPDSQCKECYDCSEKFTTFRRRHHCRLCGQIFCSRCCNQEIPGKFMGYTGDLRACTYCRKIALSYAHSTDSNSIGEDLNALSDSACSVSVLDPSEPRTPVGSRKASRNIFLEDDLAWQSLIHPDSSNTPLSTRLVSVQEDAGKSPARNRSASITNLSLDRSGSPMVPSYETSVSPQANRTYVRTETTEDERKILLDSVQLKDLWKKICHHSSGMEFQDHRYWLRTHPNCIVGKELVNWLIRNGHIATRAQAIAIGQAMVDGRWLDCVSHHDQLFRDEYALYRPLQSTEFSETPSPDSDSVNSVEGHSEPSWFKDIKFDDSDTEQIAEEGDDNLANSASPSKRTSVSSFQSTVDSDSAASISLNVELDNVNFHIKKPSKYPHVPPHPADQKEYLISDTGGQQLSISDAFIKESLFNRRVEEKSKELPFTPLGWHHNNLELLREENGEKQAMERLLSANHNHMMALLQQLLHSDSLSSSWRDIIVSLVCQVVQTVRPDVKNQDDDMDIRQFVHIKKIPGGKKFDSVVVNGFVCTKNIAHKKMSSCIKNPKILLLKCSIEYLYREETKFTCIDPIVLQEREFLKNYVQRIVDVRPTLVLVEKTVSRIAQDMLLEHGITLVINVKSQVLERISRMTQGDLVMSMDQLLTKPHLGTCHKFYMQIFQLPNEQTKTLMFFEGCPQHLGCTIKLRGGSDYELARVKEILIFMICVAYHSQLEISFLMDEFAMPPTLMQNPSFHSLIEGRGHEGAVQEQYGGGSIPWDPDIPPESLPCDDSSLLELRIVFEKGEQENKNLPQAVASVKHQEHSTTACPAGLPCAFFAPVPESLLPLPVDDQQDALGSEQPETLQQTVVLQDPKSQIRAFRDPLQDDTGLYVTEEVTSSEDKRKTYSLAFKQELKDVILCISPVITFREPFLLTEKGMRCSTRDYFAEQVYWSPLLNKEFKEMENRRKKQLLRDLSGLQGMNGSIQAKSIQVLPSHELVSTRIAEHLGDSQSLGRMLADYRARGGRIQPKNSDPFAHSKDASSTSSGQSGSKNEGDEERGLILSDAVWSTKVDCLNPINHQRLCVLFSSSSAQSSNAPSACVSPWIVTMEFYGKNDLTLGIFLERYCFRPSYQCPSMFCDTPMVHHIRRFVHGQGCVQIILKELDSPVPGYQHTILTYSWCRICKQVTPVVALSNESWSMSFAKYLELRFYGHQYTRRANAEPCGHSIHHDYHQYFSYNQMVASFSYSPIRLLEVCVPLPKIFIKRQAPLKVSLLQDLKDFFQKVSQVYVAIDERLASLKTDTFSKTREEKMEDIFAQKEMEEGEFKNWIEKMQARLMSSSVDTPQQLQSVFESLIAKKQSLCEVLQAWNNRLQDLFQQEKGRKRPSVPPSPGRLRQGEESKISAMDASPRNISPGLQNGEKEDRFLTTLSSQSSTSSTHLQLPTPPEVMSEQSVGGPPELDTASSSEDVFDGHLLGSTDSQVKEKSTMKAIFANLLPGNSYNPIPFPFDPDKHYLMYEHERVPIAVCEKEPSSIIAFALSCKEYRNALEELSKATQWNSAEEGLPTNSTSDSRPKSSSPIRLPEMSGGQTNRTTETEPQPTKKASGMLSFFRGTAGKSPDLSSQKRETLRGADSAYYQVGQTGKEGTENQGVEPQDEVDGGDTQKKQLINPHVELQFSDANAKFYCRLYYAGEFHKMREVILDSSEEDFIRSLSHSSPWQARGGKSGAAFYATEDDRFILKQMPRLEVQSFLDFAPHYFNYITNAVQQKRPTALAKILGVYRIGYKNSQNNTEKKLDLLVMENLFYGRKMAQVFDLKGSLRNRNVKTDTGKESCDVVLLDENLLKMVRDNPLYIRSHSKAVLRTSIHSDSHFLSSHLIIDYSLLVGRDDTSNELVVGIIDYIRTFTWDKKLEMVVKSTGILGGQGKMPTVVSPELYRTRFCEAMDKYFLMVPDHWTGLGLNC

## C(=NNc1nc(Nc2ccccc2)nc(N2CCOCC2)n1)c1c[nH]c2ccccc12 [WX8, 1H-indole-3-carbaldehyde (4-anilino-6-[4-morpholinyl]-1,3,5-triazin-2-yl)hydrazone]
CHUK/IKKA
  inhibition at 1 µM: 39%
PIP4K2C
  IC50: ~1000 nM
PIKFYVE
  inhibition at 1 µM: 97%
